Source: paper PMC8228174, “In Vitro Characterization of Guanylyl Cyclase BdPepR2 from Brachypodium distachyon Identified through a Motif-Based Approach” (International Journal of Molecular Sciences, 2021)

Columns and labels:
BdPepR2 [1] = target: T1, BdPepR2 (Brachypodium distachyon, UniProt A0A2K2CYK2, M1083A); test: Kinase-Glo plus luminescent kinase assay; type: biochemical; conditions: 1 µM cGMP suppresses kinase activity; 100 μM ATP, Histone Type III-S, 5 mM MgCl2 and 5 mM MnCl2, 1 mM DTT, 25 mM Tris/HCl pH 7.5, 30 °C; extent only in figure
T1 construct: gene LOC100834510; full length 1146 aa; pGEX-6P-2, E. coli BL21(DE3)pLysS; GST tag cut off with PreScission protease

BdPepR2 [2] = target: T2, BdPepR2 (Brachypodium distachyon, UniProt A0A2K2CYK2); test: Kinase-Glo plus luminescent kinase assay; type: biochemical; conditions: 1 µM cGMP suppresses kinase activity; 100 μM ATP, Histone Type III-S, 5 mM MgCl2 and 5 mM MnCl2, 1 mM DTT, 25 mM Tris/HCl pH 7.5, 30 °C; extent only in figure
T2 construct: gene LOC100834510; full length 1146 aa; pGEX-6P-2, E. coli BL21(DE3)pLysS; GST tag cut off with PreScission protease

BdPepR2 [3] = target: T2, BdPepR2; test: Kinase-Glo plus luminescent kinase assay; type: biochemical; conditions: 1 µM cGMP suppresses kinase activity; 100 μM ATP, Histone Type III-S, 5 mM MgCl2 and 5 mM MnCl2, 1 mM DTT, 25 mM Tris/HCl pH 7.5, 30 °C; extent only in figure; remark: listed apart in the source
Target sequence in this assay (A0A2K2CYK2 entry or part of it M1083R): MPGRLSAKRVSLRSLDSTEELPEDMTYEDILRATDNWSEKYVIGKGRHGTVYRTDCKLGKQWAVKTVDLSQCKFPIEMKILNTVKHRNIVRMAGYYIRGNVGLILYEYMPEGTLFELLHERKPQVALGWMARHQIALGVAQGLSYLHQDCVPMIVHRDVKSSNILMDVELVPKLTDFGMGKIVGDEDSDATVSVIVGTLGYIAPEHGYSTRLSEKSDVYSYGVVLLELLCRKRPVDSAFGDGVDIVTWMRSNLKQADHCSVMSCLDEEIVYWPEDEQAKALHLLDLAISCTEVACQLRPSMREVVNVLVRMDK

[4] = substrate: Nc1nc2c(ncn2[C@@H]2O[C@H](COP(=O)(O)OP(=O)(O)OP(=O)(O)O)[C@@H](O)[C@H]2O)c(=O)[nH]1; test: guanylyl cyclase assay, cGMP by LC-MS/MS; type: biochemical, Brachypodium distachyon; conditions: 5 mM MnCl2, 50 mM Tris/HCl pH 7.5, 30 °C, 15 min, GTP 0.5-2 mM, GC centre

T1 sequence (A0A2K2CYK2 entry or part of it M1083A): as the sequence (A0A2K2CYK2 entry or part of it M1083R) above, with R233A counted along it

| Molecule | Kinase-Glo plus luminescent kinase assay (BdPepR2 [1]) | Kinase-Glo plus luminescent kinase assay (BdPepR2 [2]) | Kinase-Glo plus luminescent kinase assay (BdPepR2 [3]) | Km [4] |
| --- | --- | --- | --- | --- |
| Nc1nc2c(ncn2[C@@H]2O[C@@H]3COP(=O)(O)O[C@H]3[C@H]2O)c(=O)[nH]1 [cGMP] | kinase activity of BdPepR2, BdPepR2M1066A, and BdPepR2M1066R is suppressed by GTP and cGMP | only the product of GC activity, cGMP, statistically significantly suppress kinase activity of BdPepR2 | kinase activity of BdPepR2, BdPepR2M1066A, and BdPepR2M1066R is suppressed by GTP and cGMP |  |
| BdPepR2 (Brachypodium distachyon) (protein, full length 1146 aa; pGEX-6P-2, E. coli BL21(DE3)pLysS; GST tag cut off with PreScission protease) MPGRLSAKRVSLRSLDSTEELPEDMTYEDILRATDNWSEKYVIGKGRHGTVYRTDCKLGKQWAVKTVDLSQCKFPIEMKILNTVKHRNIVRMAGYYIRGNVGLILYEYMPEGTLFELLHERKPQVALGWMARHQIALGVAQGLSYLHQDCVPMIVHRDVKSSNILMDVELVPKLTDFGMGKIVGDEDSDATVSVIVGTLGYIAPEHGYSTRLSEKSDVYSYGVVLLELLCRKMPVDSAFGDGVDIVTWMRSNLKQADHCSVMSCLDEEIVYWPEDEQAKALHLLDLAISCTEVACQLRPSMREVVNVLVRMDK |  |  |  | 1189 µM |
